Source: the NIST ThermoML archive (doi:10.1016/j.tca.2012.11.008)

Assay: mn = molality of the nth substance listed, in mol/kg
Conditions: 101 kPa, Liquid; for speed of sound: Sing-around technique in a fixed-path interferometer; for mass density: Vibrating tube method

O [water] + NC(CO)(CO)CO.O=C(c1ccccc1)c1ccc2n1CCC2C(=O)O
Conditions | speed of sound [m/s]
313.15 K, m2 = 0 | 1529.1

NC(CO)(CO)CO.O=C(c1ccccc1)c1ccc2n1CCC2C(=O)O (stereo unspecified) [ketorolac tromethamine] + O
Conditions | mass density, 293.15 K [kg/m3] | mass density, 298.15 K [kg/m3] | mass density, 303.15 K [kg/m3] | mass density, 308.15 K [kg/m3] | mass density, 313.15 K [kg/m3] | speed of sound, 293.15 K [m/s] | speed of sound, 298.15 K [m/s] | speed of sound, 303.15 K [m/s] | speed of sound, 308.15 K [m/s] | speed of sound, 313.15 K [m/s]
m1 = 0.01 | 999.38 | 998.2 | 996.79 | 995.17 | 993.34 | 1485.6 | 1499.7 | 1512 | 1522.5 | 1531.5
m1 = 0.02 | 1000.35 | 999.17 | 997.75 | 996.11 | 994.28 | 1486.8 | 1500.7 | 1512.9 | 1523.3 | 1532.2
m1 = 0.03 | 1001.41 | 1000.21 | 998.78 | 997.13 | 995.29 | 1488.7 | 1502.5 | 1514.6 | 1524.9 | 1533.7
m1 = 0.04 | 1002.57 | 1001.23 | 999.83 | 998.13 | 996.22 | 1491 | 1504.7 | 1516.7 | 1527 | 1535.7
m1 = 0.05 | 1003.3 | 1002.07 | 1000.62 | 998.96 | 997.1 | 1492.1 | 1505.7 | 1517.6 | 1527.7 | 1536.3
m1 = 0.075 | 1006.13 | 1004.88 | 1003.4 | 1001.71 | 999.82 | 1497.4 | 1510.7 | 1522.3 | 1532.2 | 1540.5
m1 = 0.1 | 1008.75 | 1007.46 | 1005.95 | 1004.24 | 1002.31 | 1501.5 | 1514.5 | 1525.8 | 1535.5 | 1543.6
m1 = 0.125 | 1011.43 | 1010.1 | 1008.54 | 1006.74 | 1004.79 | 1506 | 1518.8 | 1530 | 1539.4 | 1547.3
m1 = 0.15 | 1014.02 | 1012.67 | 1011.11 | 1009.34 | 1007.39 | 1509.9 | 1522.5 | 1533.4 | 1542.7 | 1550.4
m1 = 0.175 | 1016.56 | 1015.19 | 1013.63 | 1011.84 | 1009.86 | 1514.6 | 1527.1 | 1538 | 1547.2 | 1554.6
m1 = 0.2 | 1019.22 | 1017.8 | 1016.15 | 1014.32 | 1012.32 | 1518.9 | 1531.4 | 1542.3 | 1550.8 | 1558.1
m1 = 0.25 | 1024.63 | 1023.16 | 1021.49 | 1019.63 | 1017.59 | 1525.6 | 1537.4 | 1547.6 | 1556 | 1563
